In brackets after ≈: the same amount, converted by molar mass.
Legend:
[1] = system: murine transplantable P388 leukemia; experiment: in vivo antitumor activity against P388 leukemia in mice (single ip dose, median survival time); parameters: species or system murine (female CDF1 mice); details: Q1D × 1, ip; for T/C % of MST: day 1
Experimental: Representative compounds of the present invention were evaluated for antitumor activity against murine transplantable P388 leukemia. Female CDF1 mice were inoculated intraperitoneally with approximately 10^6 P388 leukemic cells (day 0). […] The percent increase of median survival time (MST) of treated animals over that of untreated control animals was determined and reported as % T/C. Compounds showing % T/C values of 125 or greater are considered to have significant antitumor activity.

B16-F10 murine melanoma = experiment: in vitro cytotoxicity, B16-F10 murine melanoma; format: cell-based; details: Mus musculus; B16-F10, 72 hours, neutral red
Experimental: (§1) Representative compounds of the present invention were also tested in in vitro cytotoxicity assays against four tumor cell lines. These cell lines were grown and maintained at 37° C. under a humidified atmosphere in a 5% CO2 incubator:
B16-F10 murine melanoma in Eagle's MEM medium (Nissui) containing kanamycin (60 μg/ml) and supplemented with heat-inactivated fetal calf serum (FCS, 10 %) and non-essential amino acids (0.6 %);
(§2) In experiments using the B16-F10 and Moser cell lines, exponentially growing cells were harvested, counted and suspended in the culture medium at a concentration of 1.5×10^4 and 3×10^4 cells/ml, respectively. Twenty-four hours after planting cell suspension (180 μl) into wells of a 96-well microtiter plate, test materials (20 μl) were added to the wells and the plates were incubated for 72 hours. Cytotoxicity against the tumor cells was colorimetrically determined at 540 nm after staining viable cells with neutral red solution. For the K562 and K562/ADM cell lines, 900 μl of the cell suspension (8×10^4 cells/ml) was incubated with test materials (100 μl) at 37° C., 5% CO2 for 48 hours in a 24-well tissue culture plate. Cytotoxicity was determined by counting the number of cells using a cell counter.

[2] = system: Moser human colon carcinoma; experiment: in vitro cytotoxicity, Moser human colon carcinoma; format: cell-based; details: 72 hours, neutral red
Experimental: as §1
Moser human colon carcinoma in Eagle's MEM medium supplemented with FCS (10 %);
as §2

[3] = system: K562 human myelogenous leukemia; experiment: in vitro cytotoxicity, K562 human myelogenous leukemia; format: cell-based; details: K562, 48 hours, cell counter
Experimental: as §1
(§3) K562 human myelogenous leukemia and K562/ADM, an adriamycin-resistant subline which was kindly provided by Dr. Takashi Tsuruo (University of Tokyo) in RPMI 1640 medium (Nissui) supplemented with FCS (10 %), penicillin (100 U/ml) and streptomycin (100 μg/ml).
as §2

[4] = system: K562/ADM, an adriamycin-resistant subline; experiment: in vitro cytotoxicity, K562/ADM adriamycin-resistant subline; format: cell-based; details: Homo sapiens, 48 hours, cell counter
Experimental: as §1, §3, §2

Row | SMILES | T/C % of MST ([1]; 0.1 mg/kg) [%] | T/C % of MST ([1]; 0.3 mg/kg) [%] | T/C % of MST ([1]; 1 mg/kg) [%] | T/C % of MST ([1]; 3 mg/kg) [%] | T/C % of MST ([1]; 10 mg/kg) [%] | T/C % of MST ([1]; 30 mg/kg) [%] | T/C % of MST ([1]; 60 mg/kg) [%] | T/C % of MST ([1]; 120 mg/kg) [%] | IC50 (B16-F10 murine melanoma) [µg/mL] | IC50 [2] [µg/mL] | IC50 [3] [µg/mL] | IC50 [4] [µg/mL] | Number of survivors/tested on day 50 ([1]; 120 mg/kg)
1 | COc1cc([C@@H]2c3cc4c(cc3[C@@H](O[C@@H]3O[C@@H]5CO[C@H](OC)O[C@H]5[C@H](O)[C@H]3O)[C@H]3COC(=O)[C@H]23)OCO4)cc(OC)c1O [Compound 1a, 4'-Demethyl-4-O-(4,6-O-β-Methoxymethylidene-β-D-Glucopyranosyl)Epipodophyllotoxin] | 115 | 132 | 137 | 142 | 149 | 166 | 195 | 248 | 0.094 (≈ 0.155 µM) |  |  |  | 
2 | COc1cc([C@@H]2c3cc4c(cc3[C@@H](O[C@@H]3O[C@@H]5CO[C@@H](OC)O[C@H]5[C@H](O)[C@H]3O)[C@H]3COC(=O)[C@H]23)OCO4)cc(OC)c1O [Compound 1b, 4'-Demethyl-4-O-(4,6-O-α-Methoxymethylidene-β-D-Glucopyranosyl)EpipodophYllotoxin] | 110 | 120 | 130 | 145 | 165 | 180 |  |  | 0.27 (≈ 0.447 µM) | 3.4 (≈ 5.62 µM) |  |  | 
3 | CCO[C@H]1OC[C@H]2O[C@@H](O[C@@H]3c4cc5c(cc4[C@@H](c4cc(OC)c(O)c(OC)c4)[C@H]4C(=O)OC[C@@H]43)OCO5)[C@H](O)[C@@H](O)[C@@H]2O1 [Compound 2a, 4'-Demethyl-4-O-(4,6-O-β-Ethoxymethylidene-β-D-Glucopyranosyl)Epipodophyllotoxin] | 114 | 119 | 124 | 133 | 148 | 171 | 181 | 214 | 0.11 (≈ 0.178 µM) | 1.7 (≈ 2.75 µM) | 0.065 (≈ 0.105 µM) | > 50 | 
4 | CCO[C@@H]1OC[C@H]2O[C@@H](O[C@@H]3c4cc5c(cc4[C@@H](c4cc(OC)c(O)c(OC)c4)[C@H]4C(=O)OC[C@@H]43)OCO5)[C@H](O)[C@@H](O)[C@@H]2O1 [Compound 2b, 4'-Demethyl-4-O-(4,6-O-α-Ethoxymethylidene-α-D-Glucopyranosyl)Epipodophyllotoxin] | 114 | 114 | 119 | 138 | 143 | 167 | 200 | 219 | 0.54 (≈ 0.873 µM) | 2.2 (≈ 3.56 µM) | 0.18 (≈ 0.291 µM) | > 50 | 1/4
5 | COc1cc([C@@H]2c3cc4c(cc3[C@@H](O[C@@H]3O[C@@H]5COC(OC)(OC)O[C@H]5[C@H](O)[C@H]3O)[C@H]3COC(=O)[C@H]23)OCO4)cc(OC)c1O [Compound 3, 4'-Demethyl-4-O-(4,6-O-Dimethoxymethylidene-β-D-Glucopyranosyl)Epipodophyllotoxin] | 125 | 135 | 135 | 140 | 170 | 190 | 170 | 210 | 2.7 (≈ 4.25 µM) | 3.3 (≈ 5.2 µM) |  |  | 1/4
6 | CCOC1(OCC)OC[C@H]2O[C@@H](O[C@@H]3c4cc5c(cc4[C@@H](c4cc(OC)c(O)c(OC)c4)[C@H]4C(=O)OC[C@@H]43)OCO5)[C@H](O)[C@@H](O)[C@@H]2O1 [Compound 4, 4'-Demethyl-4-O-(4,6-Diethoxymethylidene-β-D-Glucopvranosyl)Epipodophyllotoxin] | 100 | 109 | 127 | 132 | 136 | 145 | 150 | 182 | 7.3 (≈ 11 µM) | 3 (≈ 4.53 µM) | 0.082 (≈ 0.124 µM) | 32 (≈ 48.3 µM) | 
7 | COc1cc([C@@H]2c3cc4c(cc3[C@@H](O[C@@H]3O[C@@H]5CO[C@@H](C)O[C@H]5[C@H](O)[C@H]3O)[C@H]3COC(=O)[C@H]23)OCO4)cc(OC)c1O [Etoposide, reference compound] | 120 | 130 | 136 | 143 | 163 | 185 | 212 | 288 |  |  |  |  | 

From patent publication US5034380A, “Alkoxymethylidene epipodophyllotoxin glucosides” (Bristol-Myers Squibb Company, priority 1989, dated 1991)
